Laboratory results: article PMC8412337, “Alpha-single chains of collagen type VI inhibit the fibrogenic effects of triple helical collagen VI in hepatic stellate cells” (PLoS ONE, 2021)

Columns and labels:
[1] = system: CVI-induced proliferation of CFSC; experiment: Inhibition of CVI-induced proliferation by α3(VI)-derived 30-mer peptides, [3H]-thymidine incorporation; assay type: cell-based, rat; settings: serum-starved CFSC; 100-fold molar excess of 30-mer peptide compared to CVI; 24 h; n = 4; p<0.05
Description: (§1) 5x10^3CFSC in 100 μl 10% FBS were seeded into a 96-well flat-bottom tissue culture plate (Nunc, Roskilde, Denmark). After 24 hours, medium was completely removed, and cells were rinsed with 200 μl phosphate-buffered saline and 100 μl standard medium containing only 0.25% FBS were added. Cells were cultured for additional 24 h prior to treatment. Synchronized microcultures in 96-well plates were treated for 2 hours in reduction medium. When appropriate, the reduction medium was supplemented with 40 mg/l of α1(VI), α2(VI) or α3(VI). Then, 30 mg/l CVI or CI as control were added and cells were incubated for 24 h after which [^3H]-thymidine was added for additional 24 h. To assess effects of α3(VI)-derived 30-mer peptides on CVI-induced proliferation of CFSC, the reduction medium was supplemented with a 100-fold molar excess of the respective 30-mer peptides compared to CVI. [^3H]-thymidine incorporation was measured as described before. Cells treated with 150 mmol/l HAc or grown in 10% FBS served as negative and positive controls, respectively. During the last 4 hours of treatment, all cultures received 18.5 kBq [^3H]-thymidine (Amersham, Freiburg, Germany). Cells were fixed with 10% trichloroacetic acid and lysed by 200 mmol/l NaOH. After neutralization with 800 mmol/l HCl, lysates were collected to a glassfibre mat and the de-novo DNA synthesis was assessed by liquid scintillation (LKB Wallac, Bromma, Sweden) and the radioactive decay was counted (for) a minute (cpm).

[2] = system: 10% FBS-induced proliferation of HSC; experiment: Inhibition of 10% FBS-induced proliferation by alpha single chains, [3H]-thymidine incorporation; assay type: cell-based, rat; settings: cells grown in 10% FBS, Fig 4A
Description: as §1

[3] = system: CVI-induced proliferation of HSC; experiment: Inhibition of CVI-induced proliferation by alpha single chains, [3H]-thymidine incorporation; assay type: cell-based, rat; settings: 40 mg/l single chain, then 30 mg/l CVI; 24 h; primary rHSCs, n = three; Fig 4A legend: CFSC, n = 4
Description: as §1

[4] = system: CFSC; experiment: Fibrosis-associated gene expression, quantitative real-time PCR; assay type: cell-based, rat
Description: 30 mg/l CVI, 133 mg/l of the monomeric alpha chains of CVI and/or TGF-β (2 ng/ml) were added after 24 h. […] Reverse transcribed complementary DNA templates were amplified by quantitative real-time polymerase chain reaction (PCR; Roche Diagnostics, Mannheim, Germany) using fluorogenic probes labeled with 6-carboxy-fluorescein and 6-carboxy-tetramethylrhodamin (Sigma- Genosys, Steinheim, Germany) and primer pairs (Invitrogen, Karlsruhe, Germany) specific for fibrosis-associated genes (for sequences see S2 Table). Gene expressions were normalized to glyceraldehyde phosphate dehydrogenase (GAPDH).

[5] = system: primary rat HSCs; experiment: [3H]-thymidine incorporation, de-novo DNA synthesis; assay type: cell-based; settings: primary rHSCs; CVI at 10 μg/ml; within 24 hours; three independent experiments
[6] = system: primary rat HSC; experiment: FACS analysis of apoptosis (propidium iodide DNA content); assay type: cell-based; settings: serum-starved primary rat HSC; text: within 24 hours, Fig 1C legend: 48 h; propidium iodide; three independent experiments
Description: Activated HSC (third passage) were serum starved for 24 h in standard medium without FBS (starving medium), followed by dissociation with 500 μl 0.05% trypsin-EDTA (Biochrom, Berlin, Germany) and neutralization with 30 ml starving medium containing 1 g/l soybean trypsin inhibitor and 1 g/l ovalbumin. Alternatively, cells were scraped carefully with a cell-scraper (Costar, Cambridge, MA, USA) to exclude any potential effect of trypsin. After centrifugation at 800 x g for 10 min, cells were washed twice with 20 ml PBS (w/o Ca^2+, Mg^2+; Biochrom, Berlin, Germany), resuspended in starving medium and plated at a density of 1.5-2x10^6 in 1.7 ml starving medium in 6-well plates (NUNC, Wiesbaden, Germany). Cells were then treated with starving medium, soluble CI or CVI (both at a final concentration of 30 mg/l), or 10% FBS. For quantification of spreading, cells that had attached were counted 12 hours after plating and spreading efficiency was determined as percentage of plated cells in each group. De-novo DNA synthesis and apoptosis were assessed by morphological criteria, Cell death detection ELISA and FACS analysis as described below. […] After blocking the cells 1h with DMEM+1% FBS, the cells were incubated with primary antibodies against a-actin (Sigma-Aldrich, Taufkirchen, Germany, #A2547; dilution 1:200) and GFAP (Sigma-Aldrich, #G9269; dilution 1:20) followed by a washing step with PBS and the incubation with fluorescence-labeled secondary antibodies (Alexa Fluor 546 & Alexa Fluor 488, Molecular Probes, Eugene, USA, #A11030 & #A11034; dilution 1:100). […] Cells were analyzed by fluorescence microscopy (Zeiss, Jena, Germany; Kodak Ektachrome P1600 and a quantitative staining analysis was performed using Image J software (version 1.50i; National Institutes of Health, Bethesda, […], USA).
10^5 of freshly set cells were treated with starving medium, CI, CVI or 10% FBS for 24 or 48 hours as described before. […] Fixed cells were stained with propidium iodide (50 mg/l) in a final volume of 1 ml before being subjected to fluorescence activated cell sorting (FACS) analysis.

[7] = system: Bax and Bcl-2 in activated HSCs; experiment: Western-blot analysis of Bax and Bcl-2; assay type: cell-based, rat; settings: 24 hours culture after serum starvation; densitometry; three independent experiments
Description: Dislodged cells were centrifuged at 800 x g/10 min and lysed with 100 μl lysis buffer. The protein concentration was determined using NanoOrange® Protein Quantitation Kit (Life Technologies) according to the manufacturer’s instructions. Briefly, protein solutions were mixed with the diluted NanoOrange reagent in 1.5 ml polypropylene tubes and heated at 95°C for 10 min in a thermomixer (Peqlab, Erlangen, Germany). Tubes were centrifuged and 200 μl of each sample were transferred to a black 96 well flat-bottom plate (Greiner BioOne, Frickenhausen, Germany). The emitted fluorescence was assessed at 570 nm in a SpectraMax Gemini EM (Molecular Devices, Biberach an der Riß, Germany). Protein concentrations were calculated from a bovine serum albumin standard curve. Equivalent amounts (10–50 μg) of protein were used in […]. Sample buffer (1:1) was added and the aliquots (20 μl final volume) were boiled for 5 min and subjected to 12% SDS-PAGE. After blocking for 1 h at room temperature in 10 mmol Tris-HCl, pH 7.5, 100 mmol NaCl, containing 0.1% Tween 20 and 3% bovine serum albumine (BSA), nitrocellulose-membranes were incubated either with polyclonal rabbit anti-rat antibodies to Bax (1:1000, sc-493), Bcl-2 (1:1000, sc783, both Santa Cruz, Santa Cruz, USA), α-actin (1:4000, A2547, Sigma) or β-actin (1:10,000, A5441, Sigma). Membranes were then washed in 10 mmol Tris-HCl, 100 mmol NaCl, 0.1% Tween 20, pH 7.5, and incubated with anti-rabbit IgG coupled to peroxidase (1:1000, A4416, Sigma) for 1 h at room temperature or directly developed (RC20H). Bands were detected with the ECL chemiluminescence reagent (Amersham-Pharmacia, Freiburg, Germany). After stripping in 0.1 M glycin-HCl, pH 2, for 20 min at room temperature, membranes were reprobed with appropriate primary and secondary antibodies. Band intensities were analyzed by densitometry and normalized to β-actin.

[8] = system: primary rat HSC; experiment: Cell Death Detection ELISA (oligonucleosomal DNA fragments); assay type: cell-based; settings: OD of sample divided by OD of 10% FBS group, three independent experiments
Description: 10^5 cells were seeded in 6-well plates and treated with starving medium or medium plus CI, CVI or 10% FBS. After 24 or 48 h floating and adherent cells were pooled, and lysed with 500 μl of 1% SDS, 10 mM Tris, pH 7.4 (lysis buffer), for 30 min at 4°C. Lysed cells were transferred to 1.5 ml Eppendorf tubes and centrifuged at 13,000 rpm for 20 min, to separate low molecular weight DNA (oligonucleosome-sized fragments derived from apoptotic cells) from high molecular weight DNA (from viable cells). 400 μl of the supernatant containing oligonucleosomes were transferred to another Eppendorf tube and diluted 1:5 with lysis buffer. 100 μl aliquots were used for the Cell Death Detection ELISA, which was performed according to the manufacturer’s instructions (Boehringer Mannheim, Germany). In brief, antibodies against histones were coated onto 96-wells, 100 μl lysate-samples containing oligonucleotides and histones were added and incubated for one hour. After washing, wells were incubated with anti-double strand DNA antibody coupled to peroxidase for one hour. After reaction with peroxidase substrate, absorbance was measured at 405 nm using an ELISA reader. Background values (lysis-buffer alone) were subtracted, and results are shown as enrichment factor [enrichment factor: OD (optical density) of the sample (apoptotic cells) divided by the OD of the corresponding control (viable cells, 10% FBS-group). A defined positive control was prepared using a hypertonic buffer, containing 10 mM Tris, 400 mM NaCl, 5 mM CaCl2 and 10 mM MgCl2, instead of starving medium.

[9] = CFSC, medium containing 0.2% FBS, S3 Fig, one out of two independent experiments

VNGTQGFQGCPGQRGVKGSRGFPGEKGEVG [A3, α3(VI)-derived synthetic 30-mer peptide]
inhibition of CVI-induced proliferation [1]: strong growth inhibitory effects

GNPGQDSQERGPKGETGDLGPMGVPGRDGV [B1, α3(VI)-derived synthetic 30-mer peptide]
inhibition of CVI-induced proliferation [1]: strong growth inhibitory effects

DGDKGLPGSSGEKGNPGRRGDKGPRGEKGE [A5, α3(VI)-derived synthetic 30-mer peptide]
inhibition of CVI-induced proliferation [1]: no or weaker inhibitory activities

α1(VI): monomeric alpha 1 single chain of collagen VI isolated from human placentas
effect on 10% FBS-induced proliferation [2]: had no effect | inhibition of DNA synthesis in the presence of CVI [3]: did not show any effect | effect on CVI-induced expression of αSMA, CI and TGF-β ([4]; serum-starved CFSC, 30 mg/l CVI plus 133 mg/l monomeric alpha chain, 24 h, n = 4): some inhibitory effects

CI: Human collagen I isolated from placentas by pepsin digestion; served as a control
de-novo DNA synthesis ([3H]-thymidine incorporation) [5]: little DNA incorporation | percentage of apoptotic cells (FACS) [6]: 80% | Bax to Bcl-2 ratio [7]: 7.0 | enrichment factor of oligonucleosomal fragments ([8]; after 24 hours): 5 | enrichment factor of oligonucleosomal fragments ([8]; after 48 hours): 30

DKGPRGEKGERGDVGIRGDPGNPGQDSQER [A6, α3(VI)-derived synthetic 30-mer peptide]
inhibition of CVI-induced proliferation [1]: no or weaker inhibitory activities

GIRGRRGNSGPPGIVGQKGRPGYPGPAGPR [C4, α3(VI)-derived synthetic 30-mer peptide]
inhibition of CVI-induced proliferation [1]: strong growth inhibitory effects

GFPGEKGEVGEIGLDGLDGEDGDKGLPGSS [A4, α3(VI)-derived synthetic 30-mer peptide]
inhibition of CVI-induced proliferation [1]: strong growth inhibitory effects

TGF-β [reference compound]
time after which CI expression increased [4, 9]: ~ 8 h | time of maximum CI expression [4, 9]: ~ 24 h | reduction of the expression of MMP-3 ([4]; serum-starved CFSC, 24 h, TGF-β 2 ng/ml, CVI 30 mg/l, qPCR normalized to GAPDH): ~ 70%

GAPGERGRTGPLGRKGEPGEPGPKGGIGNP [B6, α3(VI)-derived synthetic 30-mer peptide]
inhibition of CVI-induced proliferation [1]: no or weaker inhibitory activities

RDGVGSEGRRGKKGERGFPGYPGPKGNPGE [C2, α3(VI)-derived synthetic 30-mer peptide]
inhibition of CVI-induced proliferation [1]: strong growth inhibitory effects

DGYRGYPGDEGGPGERGPPGVNGTQGFQGC [A2, α3(VI)-derived synthetic 30-mer peptide]
inhibition of CVI-induced proliferation [1]: no or weaker inhibitory activities

PPGLIGEQGISGPRGSGGARGAPGERGRTG [B5, α3(VI)-derived synthetic 30-mer peptide]
inhibition of CVI-induced proliferation [1]: no or weaker inhibitory activities
